From US8853239B2, “Compounds, pharmaceutical compositions and uses thereof” (Boehringer Ingelheim International GmbH, priority 2011, dated 2014)

The compounds below were run against T1, human GPR119 (Homo sapiens, UniProt Q8TDV5) (assay: AlphaScreen cAMP assay in MIN6 cells stably transfected with human GPR119). Details: Min-6/hGPR119 cells, stimulation of intracellular cAMP, 45 minutes incubation at room temperature.
T1 construct: expression vector for human GPR119 cDNA (Acc. No. NP_848566); expressed in transfected cells
T1 sequence (Q8TDV5 1-335): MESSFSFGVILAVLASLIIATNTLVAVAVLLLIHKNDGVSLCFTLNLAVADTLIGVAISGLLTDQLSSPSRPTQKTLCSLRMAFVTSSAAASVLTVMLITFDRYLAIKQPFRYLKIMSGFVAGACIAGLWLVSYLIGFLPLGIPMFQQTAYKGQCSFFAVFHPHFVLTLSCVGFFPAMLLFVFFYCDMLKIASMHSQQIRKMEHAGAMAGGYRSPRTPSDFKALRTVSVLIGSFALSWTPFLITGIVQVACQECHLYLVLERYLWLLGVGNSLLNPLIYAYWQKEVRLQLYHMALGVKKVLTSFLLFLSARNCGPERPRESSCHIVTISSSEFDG
Format: cell-based
Method: The compounds of formula I according to the invention modulate the activity of the G-protein-coupled receptor GPR119. The effect of the compounds on the activation of GPR119 and on the stimulation of intracellular cAMP concentration is determined using the AlphaScreen cAMP Assay Kit (Cat. No. #6760625R) made by PerkinElmer.
MIN6 cells [Miyazaki J et al. Endocrinology. 1990 July; 127(1):126-32] are stably transfected with an expression vector for human GPR119 cDNA (Acc. No. NP_848566). Min-6/hGPR119 cells are cultured in DMEM, 10% FBS, 50 μM β-mercaptoethanol, 0.3 mg/mL Geniticin, 2 mM GlutaMAX at 37° C. 5% CO2. For the assay, the cells are seeded in Optiplates (white, 384-well, 160W-barcoded, TC, sterile with lid, Cat. No. #6007688 (Perkin Elmer); 10000 cells/well; 50 μl). The plates covered with lids are then incubated for 24 hours at 37° C./5% CO2. After the medium is aspirated from the wells completely, 10 μl of the test compound are added, the compounds are diluted using stimulating buffer (140 mM NaCl, 3.6 mM KCl, 0.5 mM NaH2PO4, 0.5 mM MgSO4, 1.5 mM CaCl2, 10 mM Hepes, 5 mM NaHCO3; pH 7.4. 0.5 mM IBMX and 0.1% BSA, the final DMSO concentration is 1%). After 45 minutes incubation at room temperature (approx. 20° C.), the cAMP concentrations are determined using the AlphaScreen cAMP Assay Kit (Cat. No. #6760625R from PerkinElmer).

Row | EC50 [nM] | SMILES
1 | 215 | CC(C)(F)CN1CCC(C2Cc3cc(-c4ccc(CS(C)(=O)=O)cc4)ncc3O2)CC1 (centres unmarked) [Example 4, 2-[1-(2-Fluoro-2-methyl-propyl)-piperidin-4-yl]-5-(4-methanesulfonylmethyl-phenyl)-2,3-dihydro-furo[2,3-c]pyridine]
2 | 66 | CC(C)(F)CN1CCC([C@@]2(C)Cc3cc(-c4ccc(S(C)(=O)=O)cc4)ncc3O2)CC1 [Example 10, (R)-2-[1-(2-Fluoro-2-methyl-propyl)-piperidin-4-yl]-5-(4-methanesulfonyl-phenyl)-2-methyl-2,3-dihydro-furo[2,3-c]pyridine]
3 | 663 | CC(C)(F)CN1CCC(C2Cc3cc(C4CCN(S(C)(=O)=O)CC4)ncc3O2)CC1 (centres unmarked) [Example 5, 2-[1-(2-Fluoro-2-methyl-propyl)-piperidin-4-yl]-5-(1-methanesulfonyl-piperidin-4-yl)-2,3-dihydro-furo[2,3-c]pyridine]
4 | 848 | CC(C)(F)CN1CCC([C@@H]2Cc3cc(C4=CCN(S(C)(=O)=O)CC4)ncc3O2)CC1 [Example 11, (S)-2-[1-(2-Fluoro-2-methyl-propyl)-piperidin-4-yl]-5-(1-methanesulfonyl-1,2,3,6-tetrahydro-pyridin-4-yl)-2,3-dihydro-furo[2,3-c]pyridine]
5 | 22 | CS(=O)(=O)Cc1ccc(-c2cc3c(cn2)OC(C2CCN(CC4(C(F)(F)F)CC4)CC2)C3)c(F)c1 (centres unmarked) [Example 7, 5-(2-Fluoro-4-methanesulfonylmethyl-phenyl)-2-{1-[(1-trifluoromethyl-cyclopropyl)methyl]-piperidin-4-yl}-2,3-dihydrofuro[2,3-c]pyridine]
6 | 27 | C[C@]1(C2CCN(CC3(C(F)(F)F)CC3)CC2)Cc2cc(-c3ccc(S(C)(=O)=O)cc3)ncc2O1 [Example 18]
7 | 2 | CS(=O)(=O)N1CC=C(c2cc3c(cn2)O[C@@H](C2CCN(CC4(C(F)(F)F)CC4)CC2)C3)CC1 [Example 14, (R)-5-(1-Methanesulfonyl-1,2,3,6-tetrahydro-pyridin-4-yl)-2-{1-[(1-trifluoromethyl-cyclopropyl)methyl]-piperidin-4-yl}-2,3-dihydro-furo[2,3-c]pyridine]
8 | 417 | CC(C)(F)CN1CCC(C2Cc3cc(-c4ccc(S(C)(=O)=O)cc4)ccc3O2)CC1 (centres unmarked) [Example 1, 1-(2-Fluoro-2-methyl-propyl)-4-[5-(4-methanesulfonyl-phenyl)-2,3-dihydro-benzofuran-2-yl]-piperidine]
9 | 84 | CC(C)(F)CN1CCC([C@H]2Cc3cc(-c4ccc(S(C)(=O)=O)cc4)ncc3O2)CC1 [Example 19, (R)-2-[1-(2-Fluoro-2-methyl-propyl)-piperidin-4-yl]-5-(4-methanesulfonyl-phenyl)-2,3-dihydro-furo[2,3-c]pyridine]
10 | 100 | CC(C)(F)CN1CCC(C2Cc3cc(-c4ccc(CS(C)(=O)=O)cc4F)ncc3O2)CC1 (centres unmarked) [Example 9, 5-(2-Fluoro-4-methanesulfonylmethyl-phenyl)-2-[1-(2-fluoro-2-methyl-propyl)-piperidin-4-yl]-2,3-dihydro-furo[2,3-c]pyridine]
11 | 35 | CS(=O)(=O)Cc1ccc(-c2cc3c(cn2)OC(C2CCN(CC4(C(F)(F)F)CC4)CC2)C3)cc1 (centres unmarked) [Example 8, 5-(4-Methanesulfonylmethyl-phenyl)-2-{1-[(1-trifluoromethyl-cyclopropyl)methyl]-piperidin-4-yl}-2,3-dihydrofuro[2,3-c]pyridine]
12 | 5 | C[C@]1(C2CCN(CC3(C(F)(F)F)CC3)CC2)Cc2cc(C3=CCN(S(C)(=O)=O)CC3)ncc2O1 [Example 13, (R)-5-(1-Methanesulfonyl-1,2,3,6-tetrahydro-pyridin-4-yl)-2-methyl-2-{1-[(1-trifluoromethyl-cyclopropyl)methyl]-piperidin-4-yl}-2,3-dihydro-furo[2,3-c]pyridine]
13 | 36 | CC(C)(F)CN1CCC(C2Cc3cc(C4=CCN(S(C)(=O)=O)CC4)ncc3O2)CC1 (centres unmarked) [Example 3, 2-[1-(2-Fluoro-2-methyl-propyl)-piperidin-4-yl]-5-(1-methanesulfonyl-1,2,3,6-tetrahydro-pyridin-4-yl)-2,3-dihydro-furo[2,3-c]pyridine]
14 | 78 | CS(=O)(=O)N1CC=C(c2cc3c(cn2)O[C@H](C2CCN(CC4(C(F)(F)F)CC4)CC2)C3)CC1 [Example 15, (S)-5-(1-Methanesulfonyl-1,2,3,6-tetrahydro-pyridin-4-yl)-2-{1-[(1-trifluoromethyl-cyclopropyl)methyl]-piperidin-4-yl}-2,3-dihydro-furo[2,3-c]pyridine]
15 | 25 | CC(C)(F)CN1CCC([C@@]2(C)Cc3cc(C4=CCN(S(C)(=O)=O)CC4)ncc3O2)CC1 [Example 16, (R)-2-[1-(2-Fluoro-2-methyl-propyl)-piperidin-4-yl]-5-(1-methanesulfonyl-1,2,3,6-tetrahydro-pyridin-4-yl)-2-methyl-2,3-dihydro-furo[2,3-c]pyridine]
16 | 21 | CS(=O)(=O)N1CC=C(c2cc3c(cn2)OC(C2CCN(CC4(C(F)(F)F)CC4)CC2)C3)CC1 (racemic) [Example 6, 5-(1-Methanesulfonyl-1,2,3,6-tetrahydro-pyridin-4-yl)-2-{1-[(1-trifluoromethyl-cyclopropyl)methyl]-piperidin-4-yl}-2,3-dihydro-furo[2,3-c]pyridine]
17 | 46 | CC(C)(F)CN1CCC([C@H]2Cc3cc(C4=CCN(S(C)(=O)=O)CC4)ncc3O2)CC1 [Example 12, (R)-2-[1-(2-Fluoro-2-methyl-propyl)-piperidin-4-yl]-5-(1-methanesulfonyl-1,2,3,6-tetrahydro-pyridin-4-yl)-2,3-dihydro-furo[2,3-c]pyridine]
